Results as given in patent US20050009840A1 (SUGEN, INC., priority 2003, published 2005).

Target: T1, HGFR (Homo sapiens, UniProt P08581)
T1 construct: purchased Upstate 14-526
Test: HGFR continuous-coupled spectrophotometric assay
Assay type: biochemical
Conditions: at 50 nM; Table 5, library procedure 40; read-out: % inhibition (percent c-MET inhibition)

T1 sequence (P08581 974-1390 limits assumed): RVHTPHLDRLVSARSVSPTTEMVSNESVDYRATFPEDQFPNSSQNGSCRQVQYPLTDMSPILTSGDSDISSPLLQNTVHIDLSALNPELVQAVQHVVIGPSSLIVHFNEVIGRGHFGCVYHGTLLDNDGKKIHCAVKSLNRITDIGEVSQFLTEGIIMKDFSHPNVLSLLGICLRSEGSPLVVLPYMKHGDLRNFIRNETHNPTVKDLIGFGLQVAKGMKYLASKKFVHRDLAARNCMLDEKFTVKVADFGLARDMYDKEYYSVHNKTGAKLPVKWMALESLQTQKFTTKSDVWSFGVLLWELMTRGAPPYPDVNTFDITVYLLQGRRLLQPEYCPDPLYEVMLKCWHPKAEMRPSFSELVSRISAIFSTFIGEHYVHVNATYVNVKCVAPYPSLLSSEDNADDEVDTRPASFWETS

SMILES | inhibition at 0.05 µM
CC(Oc1cc(-c2ccc(C(=O)NCCC3CCCN3C)cc2)cnc1N)c1c(Cl)ccc(F)c1Cl [Example L-1] | 58%
CC(Oc1cc(-c2ccc(C(=O)NCCCN3CCOCC3)cc2)cnc1N)c1c(Cl)ccc(F)c1Cl [Example L-2] | 59%
CC(Oc1cc(-c2ccc(C(=O)NCCCN3CCN(C)CC3)cc2)cnc1N)c1c(Cl)ccc(F)c1Cl [Example L-3] | 63%
CC(Oc1cc(-c2ccc(C(=O)NC3CCN(Cc4ccccc4)CC3)cc2)cnc1N)c1c(Cl)ccc(F)c1Cl [Example L-4] | 47%
CC(Oc1cc(-c2ccc(C(=O)NCCCO)cc2)cnc1N)c1c(Cl)ccc(F)c1Cl [Example L-5] | 68%
CC(Oc1cc(-c2ccc(C(=O)NCCN3CCCCC3)cc2)cnc1N)c1c(Cl)ccc(F)c1Cl [Example L-6] | 69%
CC(CO)NC(=O)c1ccc(-c2cnc(N)c(OC(C)c3c(Cl)ccc(F)c3Cl)c2)cc1 [Example L-7] | 66%
CC(Oc1cc(-c2ccc(C(=O)NCCCN3CCCCC3C)cc2)cnc1N)c1c(Cl)ccc(F)c1Cl [Example L-8] | 72%
CC(Oc1cc(-c2ccc(C(=O)NCc3cccnc3)cc2)cnc1N)c1c(Cl)ccc(F)c1Cl [Example L-9] | 64%
CC(Oc1cc(-c2ccc(C(=O)NCc3ccccn3)cc2)cnc1N)c1c(Cl)ccc(F)c1Cl [Example L-10] | 67%
CC(Oc1cc(-c2ccc(C(=O)NCCc3ccccn3)cc2)cnc1N)c1c(Cl)ccc(F)c1Cl [Example L-11] | 67%
CC(Oc1cc(-c2ccc(C(=O)NCCOCCO)cc2)cnc1N)c1c(Cl)ccc(F)c1Cl [Example L-13] | 76%
CC(Oc1cc(-c2ccc(C(=O)N[C@H]3CCN(Cc4ccccc4)C3)cc2)cnc1N)c1c(Cl)ccc(F)c1Cl (stereo partly drawn) [Example L-14] | 72%
CC(Oc1cc(-c2ccc(C(=O)N[C@@H]3CCN(Cc4ccccc4)C3)cc2)cnc1N)c1c(Cl)ccc(F)c1Cl (stereo partly drawn) [Example L-15] | 67%
CC(Oc1cc(-c2ccc(C(=O)NCCCN(C)C)cc2)cnc1N)c1c(Cl)ccc(F)c1Cl [Example L-16] | 83%
CC(Oc1cc(-c2ccc(C(=O)NC3CCN(Cc4ccccc4)C3)cc2)cnc1N)c1c(Cl)ccc(F)c1Cl [Example L-17] | 76%
CC(Oc1cc(-c2ccc(C(=O)NCCc3ccccc3)cc2)cnc1N)c1c(Cl)ccc(F)c1Cl [Example L-18] | 66%
C[C@H](Oc1cc(-c2ccc(C(=O)N[C@H](CO)c3ccccc3)cc2)cnc1N)c1c(Cl)ccc(F)c1Cl [Example L-20] | 69%
CC(Oc1cc(-c2ccc(C(=O)NCC(N)=O)cc2)cnc1N)c1c(Cl)ccc(F)c1Cl [Example L-21] | 86%
COc1cc(CNC(=O)c2ccc(-c3cnc(N)c(OC(C)c4c(Cl)ccc(F)c4Cl)c3)cc2)ccc1O [Example L-22] | 64%
CC(=O)NCCNC(=O)c1ccc(-c2cnc(N)c(OC(C)c3c(Cl)ccc(F)c3Cl)c2)cc1 [Example L-24] | 71%
CC(Oc1cc(-c2ccc(C(=O)NCC(C)(C)CN(C)C)cc2)cnc1N)c1c(Cl)ccc(F)c1Cl [Example L-25] | 77%
CC(Oc1cc(-c2ccc(C(=O)N3CCC(N(C)C)CC3)cc2)cnc1N)c1c(Cl)ccc(F)c1Cl [Example L-26] | 92%
CC(Oc1cc(-c2ccc(C(=O)NCc3ccncc3)cc2)cnc1N)c1c(Cl)ccc(F)c1Cl [Example L-27] | 74%
CC(Oc1cc(-c2ccc(C(=O)N3CCC(O)(c4ccccc4)CC3)cc2)cnc1N)c1c(Cl)ccc(F)c1Cl [Example L-28] | 64%
CC(Oc1cc(-c2ccc(C(=O)N3CCC(O)CC3)cc2)cnc1N)c1c(Cl)ccc(F)c1Cl [Example L-29] | 86%
CCN1CCCC1CNC(=O)c1ccc(-c2cnc(N)c(OC(C)c3c(Cl)ccc(F)c3Cl)c2)cc1 [Example L-30] | 80%
CC(Oc1cc(-c2ccc(C(=O)N(C)C3CCN(C)CC3)cc2)cnc1N)c1c(Cl)ccc(F)c1Cl [Example L-32] | 92%
CC(Oc1cc(-c2ccc(C(=O)N3CCN(c4ccccn4)CC3)cc2)cnc1N)c1c(Cl)ccc(F)c1Cl [Example L-33] | 63%
COc1ccc(CNC(=O)c2ccc(-c3cnc(N)c(OC(C)c4c(Cl)ccc(F)c4Cl)c3)cc2)cc1OC [Example L-34] | 62%

Now from value to compound:

inhibition at 0.05 µM | SMILES
55% | CC(Oc1cc(-c2ccc(C(=O)NCCc3ccccc3F)cc2)cnc1N)c1c(Cl)ccc(F)c1Cl [Example L-35]
62% | CC(Oc1cc(-c2ccc(C(=O)N3CCN(Cc4ccccc4)CC3)cc2)cnc1N)c1c(Cl)ccc(F)c1Cl [Example L-36]
75% | CC(Oc1cc(-c2ccc(C(=O)N(C)CCc3ccccn3)cc2)cnc1N)c1c(Cl)ccc(F)c1Cl [Example L-37]
86% | CC(C)NC(=O)CN1CCN(C(=O)c2ccc(-c3cnc(N)c(OC(C)c4c(Cl)ccc(F)c4Cl)c3)cc2)CC1 [Example L-38]
77% | CC(Oc1cc(-c2ccc(C(=O)N3CCCN(C)CC3)cc2)cnc1N)c1c(Cl)ccc(F)c1Cl [Example L-39]
55% | CC(Oc1cc(-c2ccc(C(=O)N3CCC(Cc4ccccc4)CC3)cc2)cnc1N)c1c(Cl)ccc(F)c1Cl [Example L-40]
84% | CCN(Cc1ccncc1)C(=O)c1ccc(-c2cnc(N)c(OC(C)c3c(Cl)ccc(F)c3Cl)c2)cc1 [Example L-41]
85% | CCN(CC)CCN(C)C(=O)c1ccc(-c2cnc(N)c(OC(C)c3c(Cl)ccc(F)c3Cl)c2)cc1 [Example L-43]
55% | CCN(CC)C(=O)C1CCCN(C(=O)c2ccc(-c3cnc(N)c(OC(C)c4c(Cl)ccc(F)c4Cl)c3)cc2)C1 [Example L-44]
78% | CC(Oc1cc(-c2ccc(C(=O)N3CCN(CC(=O)N4CCCC4)CC3)cc2)cnc1N)c1c(Cl)ccc(F)c1Cl [Example L-46]
83% | C[C@H](Oc1cc(-c2ccc(C(=O)N3CCCC[C@@H]3CCO)cc2)cnc1N)c1c(Cl)ccc(F)c1Cl [Example L-47]
74% | CC(Oc1cc(-c2ccc(C(=O)N3CCN(CCCO)CC3)cc2)cnc1N)c1c(Cl)ccc(F)c1Cl [Example L-49]
73% | CC(Oc1cc(-c2ccc(C(=O)NCC(C)(C)CO)cc2)cnc1N)c1c(Cl)ccc(F)c1Cl [Example L-50]
73% | C[C@H](Oc1cc(-c2ccc(C(=O)N[C@H]3CC[C@H](O)CC3)cc2)cnc1N)c1c(Cl)ccc(F)c1Cl [Example L-51]
66% | CCOC(=O)N1CCC(NC(=O)c2ccc(-c3cnc(N)c(OC(C)c4c(Cl)ccc(F)c4Cl)c3)cc2)CC1 [Example L-52]
95% | COCCCNC(=O)c1ccc(-c2cnc(N)c(OC(C)c3c(Cl)ccc(F)c3Cl)c2)cc1 [Example L-54]
83% | CC(O)CNC(=O)c1ccc(-c2cnc(N)c(OC(C)c3c(Cl)ccc(F)c3Cl)c2)cc1 [Example L-56]
76% | Cc1cnc(CNC(=O)c2ccc(-c3cnc(N)c(OC(C)c4c(Cl)ccc(F)c4Cl)c3)cc2)cn1 [Example L-57]
78% | CC(Oc1cc(-c2ccc(C(=O)NCC(F)(F)F)cc2)cnc1N)c1c(Cl)ccc(F)c1Cl [Example L-58]

inhibition at 0.05 µM | SMILES
81% | CC(Oc1cc(-c2ccc(C(=O)NCC3(O)CCCCC3)cc2)cnc1N)c1c(Cl)ccc(F)c1Cl [Example L-59]
83% | CC(Oc1cc(-c2ccc(C(=O)NCCCN3CCCC3=O)cc2)cnc1N)c1c(Cl)ccc(F)c1Cl [Example L-60]
71% | CC(Oc1cc(-c2ccc(C(=O)NCCc3ccc(O)cc3)cc2)cnc1N)c1c(Cl)ccc(F)c1Cl [Example L-61]
94% | CCN(CCO)C(=O)c1ccc(-c2cnc(N)c(OC(C)c3c(Cl)ccc(F)c3Cl)c2)cc1 [Example L-62]
85% | CC(Oc1cc(-c2ccc(C(=O)NCCN(C)C)cc2)cnc1N)c1c(Cl)ccc(F)c1Cl [Example L-64]
79% | CCN1CC(NC(=O)c2ccc(-c3cnc(N)c(OC(C)c4c(Cl)ccc(F)c4Cl)c3)cc2)CN1CC [Example L-65]
73% | CCCNC(=O)c1ccc(-c2cnc(N)c(OC(C)c3c(Cl)ccc(F)c3Cl)c2)cc1 [Example L-66]
53% | CC(C)CCNC(=O)c1ccc(-c2cnc(N)c(OC(C)c3c(Cl)ccc(F)c3Cl)c2)cc1 [Example L-67]
70% | CCOC(=O)CN1CCN(C(=O)c2ccc(-c3cnc(N)c(OC(C)c4c(Cl)ccc(F)c4Cl)c3)cc2)CC1 [Example L-68]
66% | CC(Oc1cc(-c2ccc(C(=O)NCCc3c[nH]c4ccc(O)cc34)cc2)cnc1N)c1c(Cl)ccc(F)c1Cl [Example L-69]
71% | CC(Oc1cc(-c2ccc(C(=O)NC3CCC3)cc2)cnc1N)c1c(Cl)ccc(F)c1Cl [Example L-70]
92% | CC(Oc1cc(-c2ccc(C(=O)N(C)C3CCN(C)C3)cc2)cnc1N)c1c(Cl)ccc(F)c1Cl [Example L-71]
62% | CC(Oc1cc(-c2ccc(C(=O)NCC(C)(C)C)cc2)cnc1N)c1c(Cl)ccc(F)c1Cl [Example L-72]
90% | CC(Oc1cc(-c2ccc(C(=O)N3CCCCC3CN3CCCCC3)cc2)cnc1N)c1c(Cl)ccc(F)c1Cl [Example L-73]
65% | C[C@H](Oc1cc(-c2ccc(C(=O)NC3C[C@@H]3c3ccccc3)cc2)cnc1N)c1c(Cl)ccc(F)c1Cl (stereo partly drawn) [Example L-74]
53% | CC(Oc1cc(-c2ccc(C(=O)NCCc3c(Cl)cccc3Cl)cc2)cnc1N)c1c(Cl)ccc(F)c1Cl [Example L-75]
73% | CC(Oc1cc(-c2ccc(C(=O)N(C)CCc3ccncc3)cc2)cnc1N)c1c(Cl)ccc(F)c1Cl [Example L-76]
54% | CC(Oc1cc(-c2ccc(C(=O)NCc3ccc(OC(F)(F)F)cc3)cc2)cnc1N)c1c(Cl)ccc(F)c1Cl [Example L-77]
68% | CC(Oc1cc(-c2ccc(C(=O)N(C)CCC#N)cc2)cnc1N)c1c(Cl)ccc(F)c1Cl [Example L-78]
